# Reference: PubChem BioAssay AID256 (DTP/NCI, 2004)
# Several values for one entry are separate records, joined by “and”; a condition that tells them apart may be missing. Equal entries are not always repeated. Inconclusive results and toxic doses are left out.
# System: CD2F1 mice, L1210 leukemia ip, survival T/C
# Assay: NCI In Vivo Anticancer Drug Screen. Data for tumor model L1210 Leukemia (intraperitoneal) in CD2F1 (CDF1) mice
# Conditions: higher = longer survival
# Summary of the method: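 Read-out first: treated-group measurement over vehicle-control measurement, expressed as a ratio. Animals bore a transplanted tumor line and were dosed with compound or vehicle.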
# [1] = endpoint: mean survival time, dose: 100.0 mg/kg/injection, schedule: Q01DX009 (ip), vehicle: saline with Tween-80
# [2] = endpoint: mean survival time, dose: 25.0 mg/kg/injection, schedule: Q04DX003 (ip), vehicle: saline
# [3] = endpoint: mean survival time, dose: 50.0 mg/kg/injection, schedule: Q04DX003 (ip), vehicle: saline
# [4] = endpoint: mean survival time, dose: 100.0 mg/kg/injection, schedule: Q01DX001 (ip), vehicle: saline with Tween-80
# [5] = endpoint: mean survival time, dose: 200.0 mg/kg/injection, schedule: Q01DX001 (ip), vehicle: saline with Tween-80
# [6] = endpoint: mean survival time, dose: 400.0 mg/kg/injection, schedule: Q01DX001 (ip), vehicle: saline with Tween-80
# [7] = endpoint: mean survival time, dose: 100.0 mg/kg/injection, schedule: Q04DX002 (ip), vehicle: saline with Tween-80
# [8] = endpoint: mean survival time, dose: 200.0 mg/kg/injection, schedule: Q04DX002 (ip), vehicle: saline with Tween-80
# [9] = endpoint: mean survival time, dose: 400.0 mg/kg/injection, schedule: Q04DX002 (ip), vehicle: saline with Tween-80
# [10] = endpoint: mean survival time, dose: 100.0 mg/kg/injection, schedule: Q04DX003 (ip), vehicle: saline with Tween-80
# [11] = endpoint: mean survival time, dose: 200.0 mg/kg/injection, schedule: Q04DX003 (ip), vehicle: saline with Tween-80
# [12] = endpoint: mean survival time, dose: 400.0 mg/kg/injection, schedule: Q04DX003 (ip), vehicle: saline with Tween-80
# [13] = endpoint: mean survival time, dose: 100.0 mg/kg/injection, schedule: Q01DX001 (ip), vehicle: saline
# [14] = endpoint: mean survival time, dose: 200.0 mg/kg/injection, schedule: Q01DX001 (ip), vehicle: saline
# [15] = endpoint: mean survival time, dose: 400.0 mg/kg/injection, schedule: Q01DX001 (ip), vehicle: saline
# [16] = endpoint: mean survival time, dose: 75.0 mg/kg/injection, schedule: Q01DX001 (ip), vehicle: saline
# [17] = endpoint: mean survival time, dose: 150.0 mg/kg/injection, schedule: Q01DX001 (ip), vehicle: saline
smiles,measurement,setting,value
Cc1cc(C(O)(C(=O)O)c2ccccc2)cc(C)c1C (configuration not stated),T/C,"endpoint: mean survival time, dose: 75.0 mg/kg/injection, schedule: Q01DX001 (ip), vehicle: other",100 % of control
same,T/C,"endpoint: mean survival time, dose: 150.0 mg/kg/injection, schedule: Q01DX001 (ip), vehicle: other",90 % of control
same,T/C,"endpoint: mean survival time, dose: 300.0 mg/kg/injection, schedule: Q01DX001 (ip), vehicle: other",105 % of control
Cc1ccc(S(=O)(=O)NNC(=O)C2(C)CC2(C)C(=O)O)cc1 (configuration not stated),T/C,[1],96 % of control
same,T/C,"endpoint: mean survival time, dose: 200.0 mg/kg/injection, schedule: Q01DX009 (ip), vehicle: saline with Tween-80",96 % of control
same,T/C,"endpoint: mean survival time, dose: 400.0 mg/kg/injection, schedule: Q01DX009 (ip), vehicle: saline with Tween-80",100 % of control
CC(C)c1ccc(C(=O)O)cc1S(=O)(=O)Cl,T/C,[2],98 % of control
same,T/C,[3],109 % of control
same,T/C,"endpoint: mean survival time, dose: 100.0 mg/kg/injection, schedule: Q04DX003 (ip), vehicle: saline",100 % of control and 107 % of control
CC1NC1(c1ccccc1)n1ccnc1 (configuration not stated),T/C,"endpoint: mean survival time, dose: 12.5 mg/kg/injection, schedule: Q01DX009 (ip), vehicle: water",95 % of control
same,T/C,"endpoint: mean survival time, dose: 25.0 mg/kg/injection, schedule: Q01DX009 (ip), vehicle: water",99 % of control
same,T/C,"endpoint: mean survival time, dose: 50.0 mg/kg/injection, schedule: Q01DX009 (ip), vehicle: water",99 % of control
same,T/C,"endpoint: mean survival time, dose: 100.0 mg/kg/injection, schedule: Q01DX009 (ip), vehicle: water",103 % of control
same,T/C,"endpoint: mean survival time, dose: 200.0 mg/kg/injection, schedule: Q01DX009 (ip), vehicle: water",90 % of control
C(=NCC1CCC(CN=Cc2ccco2)CC1)c1ccco1 (configuration not stated),T/C,[4],107 % of control
same,T/C,[5],101 % of control
same,T/C,[6],101 % of control
CCOC(=O)CC1(c2ccccc2)OC(=O)c2ccccc21 (configuration not stated),T/C,[7],102 % of control
same,T/C,[8],87 % of control
same,T/C,[9],87 % of control
O=[N+]([O-])c1ccc(OCc2ccccc2)nc1,T/C,[4],86 % of control
same,T/C,[5],100 % of control
same,T/C,[6],93 % of control
O=C1CCc2ccsc21,T/C,"endpoint: mean survival time, dose: 25.0 mg/kg/injection, schedule: Q04DX002 (ip), vehicle: saline with Tween-80",98 % of control
same,T/C,"endpoint: mean survival time, dose: 50.0 mg/kg/injection, schedule: Q04DX002 (ip), vehicle: saline with Tween-80",91 % of control
same,T/C,[7],106 % of control
CC(CCC(=O)O)C1CCC2C3C(O)CC4CC(O)CCC4(C)C3CC(O)C12C (configuration not stated),T/C,[4],96 % of control
same,T/C,[5],100 % of control
same,T/C,[6],96 % of control
[Cl][Pt+2][Cl].[NH-]CC1([NH-])CCCCC1,T/C,"endpoint: mean survival time, dose: 0.19 mg/kg/injection, schedule: Q04DX003 (ip), vehicle: saline with Tween-80",107 % of control
same,T/C,"endpoint: mean survival time, dose: 0.39 mg/kg/injection, schedule: Q04DX003 (ip), vehicle: saline with Tween-80",107 % of control
same,T/C,"endpoint: mean survival time, dose: 0.79 mg/kg/injection, schedule: Q04DX003 (ip), vehicle: saline with Tween-80",113 % of control
same,T/C,"endpoint: mean survival time, dose: 1.56 mg/kg/injection, schedule: Q04DX003 (ip), vehicle: saline with Tween-80",114 % of control
same,T/C,"endpoint: mean survival time, dose: 3.13 mg/kg/injection, schedule: Q04DX003 (ip), vehicle: saline",202 % of control
same,T/C,"endpoint: mean survival time, dose: 6.25 mg/kg/injection, schedule: Q04DX003 (ip), vehicle: saline",184 % of control
same,T/C,"endpoint: mean survival time, dose: 12.5 mg/kg/injection, schedule: Q04DX003 (ip), vehicle: saline with Tween-80",244 % of control
CCOC(CS(=O)(=O)CC(N)=O)OCC,T/C,[10],98 % of control
same,T/C,[11],93 % of control
same,T/C,[12],104 % of control
O=[N+]([O-])c1ccc(/C=C/C=C\c2cccc(S(=O)(=O)F)c2)c(Cl)c1,T/C,"endpoint: mean survival time, dose: 100.0 mg/kg/injection, schedule: Q01DX009 (ip), vehicle: acetone",100 % of control
same,T/C,[10],102 % of control
same,T/C,"endpoint: mean survival time, dose: 200.0 mg/kg/injection, schedule: Q01DX009 (ip), vehicle: acetone",104 % of control
same,T/C,[11],97 % of control
same,T/C,"endpoint: mean survival time, dose: 400.0 mg/kg/injection, schedule: Q01DX009 (ip), vehicle: acetone",104 % of control
same,T/C,[12],94 % of control
CC(C)(C)c1ccccc1O[Si](C)(C)C,T/C,"endpoint: mean survival time, dose: 50.0 mg/kg/injection, schedule: Q01DX009 (ip), vehicle: saline with Tween-80",105 % of control
same,T/C,[1],94 % of control
same,T/C,[10],97 % of control
same,T/C,[11],94 % of control
O=C1c2ccccc2C(=O)N1c1ccc(Br)cc1,T/C,"endpoint: mean survival time, dose: 100.0 mg/kg/injection, schedule: Q01DX001 (ip), vehicle: Klucel (hydroxypropylcellulose) (HPC)",100 % of control
same,T/C,"endpoint: mean survival time, dose: 400.0 mg/kg/injection, schedule: Q01DX001 (ip), vehicle: Klucel (hydroxypropylcellulose) (HPC)",96 % of control
Cc1cc(C)c(C(=O)CC(C#N)c2ccccc2)c(C)c1 (configuration not stated),T/C,[10],95 % of control
same,T/C,[11],98 % of control
same,T/C,[12],91 % of control
CNc1ccc(C(=O)O)cc1C(F)(F)F,T/C,[13],102 % of control
same,T/C,[14],101 % of control
same,T/C,[15],102 % of control
Fc1cc2cc3ccccc3cc2c2ccccc12,T/C,[7],101 % of control
same,T/C,[8],104 % of control
same,T/C,[9],104 % of control
Cc1ccc(-n2nc(C3OCC(O)C3O)c3nc4cc(C)c(C)cc4nc32)cc1 (configuration not stated),T/C,"endpoint: median survival time, dose: 10.0 mg/kg/injection, schedule: Q01DX005 (ip), vehicle: distilled water + Tween-80",98 % of control
same,T/C,"endpoint: median survival time, dose: 20.0 mg/kg/injection, schedule: Q01DX005 (ip), vehicle: distilled water + Tween-80",97 % of control
same,T/C,"endpoint: median survival time, dose: 40.0 mg/kg/injection, schedule: Q01DX005 (ip), vehicle: distilled water + Tween-80",103 % of control
same,T/C,"endpoint: median survival time, dose: 80.0 mg/kg/injection, schedule: Q01DX005 (ip), vehicle: distilled water + Tween-80",97 % of control
same,T/C,"endpoint: median survival time, dose: 160.0 mg/kg/injection, schedule: Q01DX005 (ip), vehicle: distilled water + Tween-80",98 % of control
CCOC(=O)C(c1ccccc1)c1ccccc1,T/C,[10],102 % of control
same,T/C,[11],111 % of control
same,T/C,[12],103 % of control
NCCCCOc1ccc([N+](=O)[O-])cc1Cl,T/C,[16],100 % of control
same,T/C,[17],102 % of control
CN(C)CCCc1c2ccccc2nc2ccc(Cl)cc12,T/C,"endpoint: mean survival time, dose: 12.0 mg/kg/injection, schedule: Q04DX003 (ip), vehicle: saline",102 % of control
same,T/C,[2],94 % of control
same,T/C,[3],98 % of control
Nc1ncnc2c1c(C(=O)NO)cn2C1OC(CO)C(O)C1O (configuration not stated),T/C,"endpoint: mean survival time, dose: 50.0 mg/kg/injection, schedule: Q01DX001 (ip), vehicle: water",170 % of control
COc1cc(-c2ccc(N=Nc3ccc4c(S(=O)(=O)O)cc(S(=O)(=O)O)c(N)c4c3O)c(OC)c2)ccc1N=Nc1ccc2c(S(=O)(=O)O)cc(S(=O)(=O)O)c(N)c2c1O,T/C,"endpoint: mean survival time, dose: 6.25 mg/kg/injection, schedule: Q01DX009 (ip), vehicle: saline",100 % of control
same,T/C,"endpoint: mean survival time, dose: 12.5 mg/kg/injection, schedule: Q01DX009 (ip), vehicle: saline",100 % of control
same,T/C,"endpoint: mean survival time, dose: 25.0 mg/kg/injection, schedule: Q01DX009 (ip), vehicle: saline",105 % of control
CCCCCCCCCC(=O)CCCCC,T/C,"endpoint: mean survival time, dose: 100.0 mg/kg/injection, schedule: Q04DX003 (ip), vehicle: other",89 % of control
same,T/C,"endpoint: mean survival time, dose: 200.0 mg/kg/injection, schedule: Q04DX003 (ip), vehicle: other",94 % of control
same,T/C,"endpoint: mean survival time, dose: 400.0 mg/kg/injection, schedule: Q04DX003 (ip), vehicle: other",103 % of control
CC1CC(C)(C)OC(C(C)C)O1 (configuration not stated),T/C,[7],96 % of control
same,T/C,[8],96 % of control
same,T/C,[9],96 % of control
C=COC(=O)N1CCCCC1,T/C,[16],97 % of control
same,T/C,[17],98 % of control
same,T/C,"endpoint: mean survival time, dose: 300.0 mg/kg/injection, schedule: Q01DX001 (ip), vehicle: saline",106 % of control
O=C(c1ccc2ccccc2c1O)N1CCCCC1,T/C,[10],101 % of control
same,T/C,[11],103 % of control
same,T/C,[12],101 % of control
CCN(CC)c1ncnc2nncnc12,T/C,"endpoint: mean survival time, dose: 100.0 mg/kg/injection, schedule: Q01DX001 (ip), vehicle: carboxymethylcellulose (CMC)",101 % of control
same,T/C,"endpoint: mean survival time, dose: 200.0 mg/kg/injection, schedule: Q01DX001 (ip), vehicle: carboxymethylcellulose (CMC)",96 % of control
CCCOC(=O)C(SCCN(C)C)c1ccccc1 (configuration not stated),T/C,[13],102 % of control
same,T/C,"endpoint: mean survival time, dose: 100.0 mg/kg/injection, schedule: Q01DX009 (ip), vehicle: saline",93 % of control
same,T/C,[14],97 % of control
same,T/C,"endpoint: mean survival time, dose: 200.0 mg/kg/injection, schedule: Q01DX009 (ip), vehicle: saline",100 % of control
same,T/C,[15],94 % of control
same,T/C,"endpoint: mean survival time, dose: 400.0 mg/kg/injection, schedule: Q01DX009 (ip), vehicle: saline",98 % of control
